From PubChem BioAssay AID449725 (University of Pittsburgh Molecular Library Screening Center, 2010)
Calls of active or inactive are those of the source. How the calls were made is not given here.

Test system: IMR-90 human lung fibroblast viability counter screen
Assay: IMR-90 fibroblast viability reduction, dose response, cytotoxicity control, cell-based, IC50 (AID 449725);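 further: 48 hour compound exposure before the viability read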

SMILES | IC50
O=c1c2ccccc2sn1-c1ccccc1Cl | 4.81 µM
CN(C)S(=O)(=O)c1cccc(-n2sc3ccccc3c2=O)c1 | 12.8 µM
O=C(O)c1ccc(Cl)cc1NC(=O)c1coc2ccccc12 | > 25 µM (inactive)
COc1ccc(S(=O)(=O)Nc2cc(Cl)ccc2C(=O)O)cc1 | > 25 µM (inactive)
O=c1c2ccccc2sn1-c1ccccc1 | 1.45 µM
CCOc1ccc(C(=O)Nc2cc(Cl)ccc2C(=O)O)cc1 | > 25 µM (inactive)
O=c1c2cc(F)ccc2sn1-c1ccccc1 | > 25 µM (inactive)
O=C(Nc1cc(Cl)ccc1C(=O)O)c1ccc2ccccc2c1 | > 25 µM (inactive)
O=C(Cn1sc2ccccc2c1=O)Nc1cccc(Br)c1 | > 25 µM (inactive)
OB1OCc2cc(C(F)(F)F)ccc21 | > 25 µM (inactive)
O=c1c2ccccc2sn1-c1cccc(F)c1 | 7.9 µM
O=C(Cn1sc2ccccc2c1=O)Nc1ccc(Cl)cc1 | > 25 µM (inactive)
O=C(Nc1cc(Cl)ccc1C(=O)O)c1ccc(C2CCCC2)cc1 | > 25 µM (inactive)
COc1ccc(C(=O)Nc2cc(Cl)ccc2C#N)cc1 | > 25 µM (inactive)
COC(=O)c1ccc(Cl)cc1NC(=O)c1ccccc1OC | > 25 µM (inactive)
Cn1sc2ccccc2c1=O | 2.32 µM
COc1ccc(C(=O)Nc2ccccc2C(=O)O)cc1 | > 25 µM (inactive)
CCC(C)(C)c1ccc(C(=O)Nc2cc(Cl)ccc2C(=O)O)cc1 | > 25 µM (inactive)
O=C(c1ccccc1)n1sc2ccccc2c1=O | 17 µM
COC(=O)c1ccc(Cl)cc1NS(=O)(=O)c1ccc(OC)cc1 | 13.8 µM
O=c1c2c(Br)cccc2sn1-c1ccccc1 | > 25 µM (inactive)
Cc1ccc(C(=O)Nc2cc(Cl)ccc2C(=O)O)c(C)c1 | > 25 µM (inactive)
O=C(O)c1ccccc1NC(=O)c1ccccc1C(=O)O | > 25 µM (inactive)
O=c1c2ccc([N+](=O)[O-])cc2sn1-c1ccccc1 | 20.7 µM

SMILES | IC50
COc1ccc(C(=O)Nc2cc(Cl)ccc2S(N)(=O)=O)cc1 | > 25 µM (inactive)
O=C(Cn1sc2ccccc2c1=O)Nc1ccc(C(F)(F)F)cc1 | 13.9 µM
Cc1cccc(C(=O)Nc2cc(Cl)ccc2C(=O)O)c1 | > 25 µM (inactive)
C=C(C)c1ccc(C(=O)Nc2cc(Cl)ccc2C(=O)O)cc1 | > 25 µM (inactive)
CC(C)(C)c1ccc(C(=O)Nc2cc(Cl)c(F)cc2C(=O)O)cc1 | > 25 µM (inactive)
CC(C)(C)c1ccc(C(=O)Nc2cc(Cl)c(Br)cc2C(=O)O)cc1 | > 25 µM (inactive)
CCOC(=O)c1ccncc1NC(=O)c1ccc(OC)cc1 | > 25 µM (inactive)
CCc1ccc(C(=O)Nc2cc(Br)ccc2C(=O)O)cc1 | > 25 µM (inactive)
Cc1ccccc1NC(=O)Cn1sc2ccccc2c1=O | 7.37 µM
O=C(Nc1ccccc1)c1cc(F)ccc1S | > 25 µM (inactive)
O=c1c2cc(C(F)(F)F)ccc2sn1-c1ccccc1 | 12 µM
O=C(Cn1sc2ccccc2c1=O)Nc1cccc(I)c1 | > 25 µM (inactive)
COC(=O)c1ccc(Cl)cc1NC(=O)c1ccc(Cl)cc1 | > 25 µM (inactive)
COc1ccc(C(=O)Nc2cc(F)ccc2C(=O)O)cc1 | > 25 µM (inactive)
Cc1ccc(C(=O)Nc2cc(Cl)ccc2C(=O)O)cc1 | > 25 µM (inactive)
COc1ccc(C(=O)Nc2cc(Cl)ccc2C(=O)O)cn1 | > 25 µM (inactive)
CC(=O)Nc1ccc2sn(-c3ccccc3)c(=O)c2c1 | 24.5 µM
O=C(Nc1cc(Cl)ccc1C(=O)O)c1ccc(I)cc1 | > 25 µM (inactive)
CCCCCCC(=O)Nc1cc(Cl)ccc1C(=O)O | > 25 µM (inactive)
O=c1ccsn1-c1ccccc1 | 5.79 µM
O=C(Nc1cc(Cl)ccc1C(=O)O)c1ccc2c(c1)CCC2 | > 25 µM (inactive)
O=C(Nc1ccccc1)n1sc2ccccc2c1=O | 1.66 µM
CC(C)(C)c1ccc(C(=O)Nc2cc(Cl)ccc2O)cc1 | > 25 µM (inactive)
